Legend:
Assay in all cases: KINOMEscan competition binding
Conditions in all cases: compound 10.0 µM
[1] = target: DSTYK (human) (UniProt Q6XUX3)
[2] = target: CHEK2 (human) (UniProt O96017)
[3] = target: CDK4 CCND1 (human) (UniProt P11802+P24385)
[4] = target: GRK7 (human) (UniProt Q8WTQ7)
[5] = target: IRAK1 (human) (UniProt P51617)
[6] = target: HIPK2 (human) (UniProt Q9H2X6)
[7] = target: SBK1 (human) (UniProt Q52WX2)
[8] = target: YSK4 (human) (UniProt Q56UN5)
[9] = target: HIPK4 (human) (UniProt Q8NE63)
[10] = target: MELK (human) (UniProt Q14680)
[11] = target: CDK15 (human) (UniProt Q96Q40)
[12] = target: PIP5K1C (human) (UniProt O60331)
[13] = target: PRKAA2 (human) (UniProt P54646)
[14] = system: KIT (human), P10721 [V559D]
[15] = target: MAP3K15 (human) (UniProt Q6ZN16)
[16] = target: LIMK1 (human) (UniProt P53667)
[17] = system: EIF2AK4 KD2 (human), Q9P2K8 [S808G]
[18] = target: PIP4K2B (human) (UniProt P78356)
[19] = target: CDK14 (human) (UniProt O94921)
[20] = target: RPS6KA5 KD1 (human) (UniProt O75582)
[21] = target: ERBB4 (human) (UniProt Q15303)
[22] = target: CAMK2G (human) (UniProt Q13555)
[23] = target: CAMK1D (human) (UniProt Q8IU85)
[24] = target: ULK1 (human) (UniProt O75385)
[25] = target: GRK1 (human) (UniProt Q15835)
[26] = target: EPHA5 (human) (UniProt P54756)
[27] = target: CSNK1D (human) (UniProt P48730)
[28] = target: MAP4K5 (human) (UniProt Q9Y4K4)
[29] = target: CDKL3 (human) (UniProt Q8IVW4)
[30] = target: RIPK2 (human) (UniProt O43353)
[31] = target: EPHA2 (human) (UniProt P29317)
[32] = target: MINK1 (human) (UniProt Q8N4C8)
[33] = target: PIK3C2G (human) (UniProt O75747)
[34] = target: PRKACB (human) (UniProt P22694)
[35] = target: CAMKK1 (human) (UniProt Q8N5S9)
[36] = target: MLTK (human) (UniProt Q9NYL2)
[37] = target: EPHA6 (human) (UniProt Q9UF33)
[38] = target: CSNK1A1L (human) (UniProt Q8N752)
[39] = target: PLK2 (human) (UniProt Q9NYY3)
[40] = target: RPS6KA6 KD1 (human) (UniProt Q9UK32)
[41] = target: ACVR1B (human) (UniProt P36896)

CSNK1A1L (human), sequence (Q8N752 whole entry, looked up): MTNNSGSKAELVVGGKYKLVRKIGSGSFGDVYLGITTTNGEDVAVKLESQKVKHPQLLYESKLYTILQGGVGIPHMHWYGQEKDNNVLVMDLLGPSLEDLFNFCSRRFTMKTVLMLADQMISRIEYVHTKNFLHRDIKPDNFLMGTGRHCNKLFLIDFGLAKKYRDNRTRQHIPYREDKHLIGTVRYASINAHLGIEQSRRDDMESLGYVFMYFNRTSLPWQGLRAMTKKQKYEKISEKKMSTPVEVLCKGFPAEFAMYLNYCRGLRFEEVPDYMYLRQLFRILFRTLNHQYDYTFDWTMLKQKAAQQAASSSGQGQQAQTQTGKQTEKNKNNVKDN
PRKAA2 (human), sequence (P54646 whole entry, looked up): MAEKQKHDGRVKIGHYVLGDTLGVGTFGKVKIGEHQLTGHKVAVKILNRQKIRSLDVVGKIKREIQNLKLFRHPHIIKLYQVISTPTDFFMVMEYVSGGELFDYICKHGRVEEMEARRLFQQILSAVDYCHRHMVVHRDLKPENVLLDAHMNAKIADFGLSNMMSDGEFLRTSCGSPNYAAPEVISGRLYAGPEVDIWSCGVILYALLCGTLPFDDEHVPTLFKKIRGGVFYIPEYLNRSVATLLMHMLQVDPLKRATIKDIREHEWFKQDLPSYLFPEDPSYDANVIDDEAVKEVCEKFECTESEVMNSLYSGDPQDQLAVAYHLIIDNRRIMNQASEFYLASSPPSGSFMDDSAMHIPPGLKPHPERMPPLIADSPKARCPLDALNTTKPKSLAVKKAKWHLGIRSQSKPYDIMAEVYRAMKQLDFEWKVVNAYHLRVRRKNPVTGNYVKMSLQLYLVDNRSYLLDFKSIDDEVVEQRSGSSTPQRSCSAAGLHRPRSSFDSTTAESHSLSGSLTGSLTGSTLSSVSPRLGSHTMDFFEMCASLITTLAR
EIF2AK4 KD2 (human), Q9P2K8 [S808G], sequence (Q9P2K8 whole entry S808G, looked up): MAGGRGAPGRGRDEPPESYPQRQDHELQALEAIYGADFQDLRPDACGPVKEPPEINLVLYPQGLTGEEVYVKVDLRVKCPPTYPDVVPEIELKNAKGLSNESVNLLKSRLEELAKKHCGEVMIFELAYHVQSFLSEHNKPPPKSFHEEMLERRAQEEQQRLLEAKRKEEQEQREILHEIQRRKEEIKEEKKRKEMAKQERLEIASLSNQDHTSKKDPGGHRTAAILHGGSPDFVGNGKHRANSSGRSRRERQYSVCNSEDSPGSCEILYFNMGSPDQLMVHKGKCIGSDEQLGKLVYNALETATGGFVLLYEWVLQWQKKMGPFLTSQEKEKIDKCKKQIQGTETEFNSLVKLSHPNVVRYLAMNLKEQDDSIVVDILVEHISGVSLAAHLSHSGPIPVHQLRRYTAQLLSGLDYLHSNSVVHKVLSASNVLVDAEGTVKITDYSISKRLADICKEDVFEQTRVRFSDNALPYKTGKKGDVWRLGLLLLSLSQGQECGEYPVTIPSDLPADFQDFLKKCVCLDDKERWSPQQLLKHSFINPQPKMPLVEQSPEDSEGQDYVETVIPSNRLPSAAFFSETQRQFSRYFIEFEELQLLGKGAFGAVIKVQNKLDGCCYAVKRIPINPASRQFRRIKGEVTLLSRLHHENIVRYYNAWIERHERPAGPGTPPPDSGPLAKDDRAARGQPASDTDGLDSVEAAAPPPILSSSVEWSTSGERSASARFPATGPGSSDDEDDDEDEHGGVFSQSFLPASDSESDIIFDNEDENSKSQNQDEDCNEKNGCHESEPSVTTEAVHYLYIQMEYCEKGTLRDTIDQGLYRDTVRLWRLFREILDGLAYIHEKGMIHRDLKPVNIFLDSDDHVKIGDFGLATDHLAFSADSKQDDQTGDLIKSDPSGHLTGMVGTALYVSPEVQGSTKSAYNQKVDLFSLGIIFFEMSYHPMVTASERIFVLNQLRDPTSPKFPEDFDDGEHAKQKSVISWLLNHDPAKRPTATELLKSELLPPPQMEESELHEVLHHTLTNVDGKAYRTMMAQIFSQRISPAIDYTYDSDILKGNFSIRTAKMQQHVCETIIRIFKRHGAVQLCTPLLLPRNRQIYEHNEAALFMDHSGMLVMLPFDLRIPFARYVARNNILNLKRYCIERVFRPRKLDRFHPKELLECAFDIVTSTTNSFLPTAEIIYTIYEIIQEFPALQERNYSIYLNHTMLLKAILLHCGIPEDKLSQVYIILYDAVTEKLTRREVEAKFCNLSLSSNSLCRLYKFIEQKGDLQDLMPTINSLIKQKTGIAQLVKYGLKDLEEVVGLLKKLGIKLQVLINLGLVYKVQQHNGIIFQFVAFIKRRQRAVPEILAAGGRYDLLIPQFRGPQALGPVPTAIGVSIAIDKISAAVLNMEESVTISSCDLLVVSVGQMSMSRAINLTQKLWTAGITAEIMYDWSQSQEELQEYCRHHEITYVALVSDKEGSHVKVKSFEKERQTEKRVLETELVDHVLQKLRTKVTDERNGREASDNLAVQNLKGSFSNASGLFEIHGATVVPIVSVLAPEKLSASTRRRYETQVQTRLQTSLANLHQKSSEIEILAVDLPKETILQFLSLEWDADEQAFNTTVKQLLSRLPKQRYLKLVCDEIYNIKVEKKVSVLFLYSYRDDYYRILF
CDKL3 (human), sequence (Q8IVW4 whole entry, looked up): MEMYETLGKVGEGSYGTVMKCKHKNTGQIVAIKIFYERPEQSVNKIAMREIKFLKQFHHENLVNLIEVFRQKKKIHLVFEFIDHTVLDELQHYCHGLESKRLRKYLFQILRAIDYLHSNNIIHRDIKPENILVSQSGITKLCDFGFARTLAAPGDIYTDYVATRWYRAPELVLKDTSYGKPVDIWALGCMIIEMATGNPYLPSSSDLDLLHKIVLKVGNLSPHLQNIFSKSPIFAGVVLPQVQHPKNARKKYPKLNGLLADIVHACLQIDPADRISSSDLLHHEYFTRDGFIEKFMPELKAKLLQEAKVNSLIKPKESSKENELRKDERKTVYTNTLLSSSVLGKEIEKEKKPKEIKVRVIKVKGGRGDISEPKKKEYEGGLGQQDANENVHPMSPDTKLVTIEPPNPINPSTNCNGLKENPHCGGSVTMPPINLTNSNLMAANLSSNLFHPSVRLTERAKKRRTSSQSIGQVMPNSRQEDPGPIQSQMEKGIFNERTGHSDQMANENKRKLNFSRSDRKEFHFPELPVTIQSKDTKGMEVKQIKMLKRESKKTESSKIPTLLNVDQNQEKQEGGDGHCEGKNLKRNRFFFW
RPS6KA5 KD1 (human), sequence (O75582 whole entry, looked up): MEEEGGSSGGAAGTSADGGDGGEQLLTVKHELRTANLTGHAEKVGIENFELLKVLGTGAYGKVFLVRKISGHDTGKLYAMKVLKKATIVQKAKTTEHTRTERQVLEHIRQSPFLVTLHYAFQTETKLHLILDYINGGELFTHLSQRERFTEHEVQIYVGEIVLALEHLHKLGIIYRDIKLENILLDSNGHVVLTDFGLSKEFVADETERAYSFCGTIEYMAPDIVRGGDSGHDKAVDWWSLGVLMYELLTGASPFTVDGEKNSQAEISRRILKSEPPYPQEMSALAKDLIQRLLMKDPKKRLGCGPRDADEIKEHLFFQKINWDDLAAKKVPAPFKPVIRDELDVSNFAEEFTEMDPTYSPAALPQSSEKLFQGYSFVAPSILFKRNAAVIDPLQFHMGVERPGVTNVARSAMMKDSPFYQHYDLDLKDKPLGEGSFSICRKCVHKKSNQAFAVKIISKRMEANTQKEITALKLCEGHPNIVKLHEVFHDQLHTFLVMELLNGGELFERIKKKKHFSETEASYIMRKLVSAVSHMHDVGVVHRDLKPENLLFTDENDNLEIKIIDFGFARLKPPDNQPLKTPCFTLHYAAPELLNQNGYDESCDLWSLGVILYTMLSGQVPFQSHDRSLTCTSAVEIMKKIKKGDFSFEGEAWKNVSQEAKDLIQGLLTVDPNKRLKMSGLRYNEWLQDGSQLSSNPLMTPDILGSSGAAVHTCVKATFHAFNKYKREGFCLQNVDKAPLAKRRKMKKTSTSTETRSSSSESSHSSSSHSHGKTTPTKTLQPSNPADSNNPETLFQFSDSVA
LIMK1 (human), sequence (P53667 whole entry, looked up): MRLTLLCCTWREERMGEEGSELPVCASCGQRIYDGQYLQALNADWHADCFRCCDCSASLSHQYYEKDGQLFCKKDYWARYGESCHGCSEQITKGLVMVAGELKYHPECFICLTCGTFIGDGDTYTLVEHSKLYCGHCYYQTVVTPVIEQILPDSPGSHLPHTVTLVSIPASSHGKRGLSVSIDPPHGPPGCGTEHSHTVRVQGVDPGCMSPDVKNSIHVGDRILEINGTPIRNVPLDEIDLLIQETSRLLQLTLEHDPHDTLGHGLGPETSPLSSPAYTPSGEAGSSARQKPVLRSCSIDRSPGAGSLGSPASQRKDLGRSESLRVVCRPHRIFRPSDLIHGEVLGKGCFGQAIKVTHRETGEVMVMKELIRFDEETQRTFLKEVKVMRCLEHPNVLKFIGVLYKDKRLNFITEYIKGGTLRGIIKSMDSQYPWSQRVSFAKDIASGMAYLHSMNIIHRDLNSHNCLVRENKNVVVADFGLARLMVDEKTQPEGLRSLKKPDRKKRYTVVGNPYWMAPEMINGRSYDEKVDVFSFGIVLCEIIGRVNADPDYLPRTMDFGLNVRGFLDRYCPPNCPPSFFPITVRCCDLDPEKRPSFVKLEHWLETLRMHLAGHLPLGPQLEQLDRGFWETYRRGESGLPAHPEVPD
PIP4K2B (human), sequence (P78356 whole entry, looked up): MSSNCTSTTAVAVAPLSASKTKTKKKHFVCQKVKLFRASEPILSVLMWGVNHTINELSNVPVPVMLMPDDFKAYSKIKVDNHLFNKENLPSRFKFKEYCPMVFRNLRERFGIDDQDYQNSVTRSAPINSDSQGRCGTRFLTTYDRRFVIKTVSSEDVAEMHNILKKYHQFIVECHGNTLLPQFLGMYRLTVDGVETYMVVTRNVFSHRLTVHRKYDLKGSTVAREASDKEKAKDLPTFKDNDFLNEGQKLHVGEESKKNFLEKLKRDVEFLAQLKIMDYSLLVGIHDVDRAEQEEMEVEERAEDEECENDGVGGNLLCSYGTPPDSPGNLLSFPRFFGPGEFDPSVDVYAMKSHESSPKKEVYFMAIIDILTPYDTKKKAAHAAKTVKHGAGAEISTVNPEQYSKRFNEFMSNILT

Work on `COc1cc(C(=O)N2CCC(N3CCN(C)CC3)CC2)ccc1Nc1ncc2c(n1)N(C)c1ccccc1C(=O)N2C` yielded a kinase still bound, per cent of control [1] of 16%, a kinase still bound, per cent of control [2] of 66% and a residual activity [3] of 100%. For the same molecule, the kinase still bound, per cent of control [4] was 100%, the kinase still bound, per cent of control [5] was 100% and the kinase still bound, per cent of control [6] was 88%. It also gave a kinase still bound, per cent of control [7] of 100%, a kinase still bound, per cent of control [8] of 99% and a kinase still bound, per cent of control [9] of 100%. It also gave a kinase still bound, per cent of control [10] of 100%, a residual activity [11] of 100% and a kinase still bound, per cent of control [12] of 96%. For the same molecule, the kinase still bound, per cent of control [13] was 66%, the kinase still bound, per cent of control [14] was 100% and the kinase still bound, per cent of control [15] was 69%. It also gave a kinase still bound, per cent of control [16] of 95%, a kinase still bound, per cent of control [17] of 95% and a kinase still bound, per cent of control [18] of 100%. For the same molecule, the residual activity [19] was 81%, the kinase still bound, per cent of control [20] was 96% and the kinase still bound, per cent of control [21] was 100%. It also gave a kinase still bound, per cent of control [22] of 47%, a kinase still bound, per cent of control [23] of 69% and a kinase still bound, per cent of control [24] of 80%. For the same molecule, the kinase still bound, per cent of control [25] was 91%, the kinase still bound, per cent of control [26] was 95% and the residual activity [27] was 81%. The kinase still bound, per cent of control [28] was 100%, the residual activity [29] was 83% and the kinase still bound, per cent of control [30] was 100%. For the same molecule, the kinase still bound, per cent of control [31] was 92%, the kinase still bound, per cent of control [32] was 77% and the kinase still bound, per cent of control [33] was 100%. The residual activity [34] was 100%, the kinase still bound, per cent of control [35] was 73% and the kinase still bound, per cent of control [36] was 99%. For the same molecule, the kinase still bound, per cent of control [37] was 89%, the kinase still bound, per cent of control [38] was 100% and the kinase still bound, per cent of control [39] was 100%. For the same molecule, the kinase still bound, per cent of control [40] was 92% and the kinase still bound, per cent of control [41] was 100%.

Source: the kinase profiling compilation of Christmann-Franck et al. (2016)
